One assay is filed under the species Homo sapiens. The assay is described as follows: Selectivity index, ratio IC50 for recombinant human MAO-B to IC50 for recombinant human MAO-A.
Assay [1] deals with T1, Amine oxidase [flavin-containing] A (Homo sapiens, UniProt P21397).
T1 sequence (P21397 whole entry): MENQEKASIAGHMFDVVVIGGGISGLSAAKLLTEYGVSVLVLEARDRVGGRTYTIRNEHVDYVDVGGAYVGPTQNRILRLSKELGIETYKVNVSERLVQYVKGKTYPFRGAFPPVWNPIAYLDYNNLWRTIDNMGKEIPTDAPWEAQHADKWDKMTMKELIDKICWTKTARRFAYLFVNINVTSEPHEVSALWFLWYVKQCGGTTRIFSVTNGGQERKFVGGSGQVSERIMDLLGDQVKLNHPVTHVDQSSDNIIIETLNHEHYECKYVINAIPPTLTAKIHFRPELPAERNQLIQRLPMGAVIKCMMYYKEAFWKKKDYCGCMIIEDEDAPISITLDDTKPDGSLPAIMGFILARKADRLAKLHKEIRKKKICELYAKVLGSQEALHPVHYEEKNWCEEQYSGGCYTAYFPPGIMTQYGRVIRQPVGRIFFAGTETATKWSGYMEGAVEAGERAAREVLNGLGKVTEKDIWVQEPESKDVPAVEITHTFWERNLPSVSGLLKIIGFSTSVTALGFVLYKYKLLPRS
The assay is described as follows: Inhibition of recombinant human MAO-A expressed in baculovirus infected BTI insect cells using kynuramine as substrate after 20 mins by fluorescence spectrophotometric assay.

The target of assay [2] is T2, Amine oxidase [flavin-containing] B (Homo sapiens, UniProt P27338).
T2 sequence (P27338 whole entry): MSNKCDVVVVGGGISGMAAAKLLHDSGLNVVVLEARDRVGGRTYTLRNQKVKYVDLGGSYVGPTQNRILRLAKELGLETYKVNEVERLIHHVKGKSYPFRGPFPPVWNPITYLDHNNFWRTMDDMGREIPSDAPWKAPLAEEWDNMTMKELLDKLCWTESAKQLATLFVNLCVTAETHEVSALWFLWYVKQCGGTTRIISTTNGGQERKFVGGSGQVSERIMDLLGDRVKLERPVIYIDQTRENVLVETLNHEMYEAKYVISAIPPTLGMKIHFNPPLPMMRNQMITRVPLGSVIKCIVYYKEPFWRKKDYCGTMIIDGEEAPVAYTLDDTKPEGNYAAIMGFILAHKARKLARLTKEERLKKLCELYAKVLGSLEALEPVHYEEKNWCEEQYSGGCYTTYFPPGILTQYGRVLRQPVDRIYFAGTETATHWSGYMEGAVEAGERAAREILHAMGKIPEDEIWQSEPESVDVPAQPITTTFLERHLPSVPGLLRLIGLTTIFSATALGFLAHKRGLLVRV
The assay is described as follows: Inhibition of recombinant human MAO-B expressed in baculovirus infected BTI insect cells using kynuramine as substrate after 20 mins by fluorescence spectrophotometric assay.

The target in assay [3] is T2, Amine oxidase [flavin-containing] B. Description: Inhibition of recombinant human MAO-B expressed in baculovirus infected BTI insect cells using kynuramine as substrate after 20 mins by Lineweaver-Burk plot analysis.
For assay [4], the target named is T1, Amine oxidase [flavin-containing] A. The assay is described as follows: Inhibition of recombinant human MAO-A expressed in baculovirus infected BTI insect cells using kynuramine as substrate after 20 mins by Lineweaver-Burk plot analysis.

On to `Nc1c(C(=O)O)c2nc3c(C(=O)O)cccc3oc-2cc1=O` [CINNABARINIC ACID], for which the Ratio IC50 in the assay filed under Homo sapiens came out at 1.43. Besides, the IC50 in assay [1] was 45.3 µM; in assay [2], 65 µM.

For the compound `O=C1c2ccc(O)c(O)c2C(=O)c2c(O)ccc(O)c21` [QUINALIZARIN], in assay [1], the IC50 stood at 17 µM.

With `Nc1c2ccccc2nc2ccccc12` [AMINACRINE], in the assay filed under Homo sapiens, the Ratio IC50 came out at 4.31. The values for the half-inhibitory concentration (IC50) in assay [1] and in assay [2] were 26 µM and 112 µM, respectively.

On to `O=C1c2cccc(O)c2C(=O)c2c(O)cc(CO)cc21` [ALOE-EMODIN], for which the Ratio IC50 in the assay filed under Homo sapiens amounted to 12.4. The IC50 in assay [1] was found to be 1.77 µM; in assay [2], 21.9 µM.

Regarding `O=C1c2cccc(O)c2C(=O)c2c(O)cccc21` [DANTHRON], in the assay filed under Homo sapiens, the Ratio IC50 worked out at 5.49. The half-inhibitory concentration (IC50) in assay [1] was determined as 10.7 µM; in assay [2], 58.7 µM.

Turning to `O=C1c2ccccc2C(=O)c2c(O)c(O)cc(O)c21` [PURPURIN], in the assay listed under Homo sapiens, the Ratio IC50 stood at 5.03. The IC50 worked out at 7.99 µM in assay [1] and 40.2 µM in assay [2].

As for `O=C1c2ccc(O)cc2C(=O)c2ccc(O)cc21` [ANTHRAFLAVICACID], the Ratio IC50 in the assay listed under Homo sapiens was found to be 0.49. Also, the values for the IC50 in assay [1] and in assay [2] were 11.5 µM and 5.62 µM, respectively.

In the case of `O=C1C(=O)c2ccccc2-c2ccccc21` [9,10-PHENANTHRENEQUINONE], the IC50 in assay [1] came out at 1.92 µM.

As for `Cc1cc(O)c2c(c1)C(=O)c1cc(O)cc(O)c1C2=O` [EMODIN], the Ratio IC50 in the assay filed under Homo sapiens is 0.75. Besides, the results for the IC50 in assay [1] and in assay [2] were 4.32 µM and 3.24 µM, respectively.

Turning to `CN1c2ccccc2Sc2ccccc21`, the IC50 in assay [1] stood at 24.9 µM.

As for `O=C1c2ccccc2Cc2ccccc21` [ANTHRONE], in assay [1], the IC50 stood at 1.89 µM.

`Nc1ccc2c(c1N)C(=O)c1ccccc1C2=O`: the Ratio IC50 in the assay filed under Homo sapiens came to 1.06. The values for the IC50 in assay [1] and in assay [2] were 2.28 µM and 2.41 µM, respectively.

As to `O=C1c2cccc(O)c2C(=O)c2cccc(O)c21` [ANTHRARUFIN], in assay [1], the IC50 was 30.8 µM.

For the compound `O=C1c2ccccc2C(=O)c2c1ccc1c(=O)c3ccccc3[nH]c21`, in assay [1], the IC50 was 85.6 µM.

Consider `COc1ccc2c(c1)Sc1ccc(Cl)cc1N2`, for which the IC50 in assay [1] turned out to be 0.576 µM; in assay [2], 1.34 µM. In addition, the Ki in assay [3] came out at 0.045 µM.

`O=c1c2ccccc2oc2ccccc12` [XANTHONE]: the IC50 in assay [1] came out at 0.623 µM.

As for `O=C1c2ccccc2C(=O)c2cnccc21`, in the assay listed under Homo sapiens, the Ratio IC50 turned out to be 0.21. Also, the IC50 in assay [1] turned out to be 20.2 µM; in assay [2] it was 4.28 µM.

With `Cc1ccc2nc3c(ccc4ccccc43)c(C)c2c1`, the IC50 in assay [1] worked out at 95.1 µM.

As for `O=C1c2ccccc2C(=O)c2c(O)ccc(O)c21` [QUINIZARIN], the Ratio IC50 in the assay listed under Homo sapiens stood at 1690. Further, the IC50 in assay [1] came to 0.065 µM; in assay [2], 110 µM. Moreover, the Ki in assay [4] is 0.039 µM.

`OC1c2ccccc2Oc2ccccc21`: in the assay listed under Homo sapiens, the Ratio IC50 came to 3.24. In addition, the figures for the half-maximal inhibitory concentration (IC50) in assay [1] and in assay [2] were 28.4 µM and 92 µM, respectively.

For `Clc1c2ccccc2nc2ccccc12`, the Ratio IC50 in the assay listed under Homo sapiens was determined as 7.6. Further, the concentration for half-maximal inhibition (IC50) is 12.1 µM in assay [1] and 91.9 µM in assay [2].

Regarding `CC1(C)CC(=O)C2=C(C1)C(=O)C1=C(C2)C(=O)CC(C)(C)C1`, in assay [1], the IC50 was 51 µM.

For `c1ccc2c(c1)Cc1ccccc1O2` [XANTHENE], the Ratio IC50 in the assay listed under Homo sapiens came to 0.32. Further, the IC50 in assay [1] is 24.8 µM; in assay [2], 7.42 µM.

On to `O=C1c2ccccc2C(=O)c2ccccc21` [ANTHRAQUINONE], for which, in assay [1], the IC50 was 122 µM.

`Nc1ccc(N)c2c1C(=O)c1ccccc1C2=O`: in assay [1], the IC50 was 1.06 µM.

As to `Clc1ccc2c(c1)Nc1ccccc1S2`, in assay [1], the concentration for half-maximal inhibition (IC50) was determined as 1.22 µM.

As usually defined, the IC50 is the concentration needed to halve the response being measured. By Ki is commonly meant the dissociation constant of the complex between target and ligand, obtained from inhibition or displacement.
